# In patent US20210254014A1, “GROWTH INHIBITOR” (Kyoto University, priority 2018, published 2021):
# How the values were obtained:
# Ki67-positive cells [1] = experiment: Ki67-positive cells by flow cytometry after 4 days of treatment with FGFR1 inhibitors at three concentrations (Example 3); assay type: cell-based
# Experimental: The number of Ki67-positive cells in the obtained cell population was evaluated by flow cytometry.
# [2] = tested on: endocrine progenitor cells derived from human iPS cells; settings: cited from earlier work
# [3] = tested on: insulin-positive (and NKX6.1-positive) cells; experiment: Insulin-positive (and NKX6.1-positive) cells by flow cytometry, timing of treatment (Example 2); assay type: cell-based; settings: 1 μM, relative value, untreated control defined as 100%
# Experimental: (§1) 1) An endocrine progenitor cell population obtained by the induction of differentiation from iPS cells were cultured for 11 days in a medium for induction of differentiation (Improved MEM/1% B27/Penicillin Streptomycin) containing differentiation factors (ALK5 inhibitor II, T3, LDN, γ-secretase inhibitor RO, and ascorbic acid) and an FGF receptor 1 inhibitor (CAS192705-79-6) to obtain an insulin-producing cell population.
# (§2) 2) An endocrine progenitor cell population obtained by the induction of differentiation from iPS cells were cultured for 4 days in a medium for induction of differentiation (Improved MEM/1% B27/Penicillin Streptomycin) containing differentiation factors (ALK5 inhibitor II, T3, LDN, γ-secretase inhibitor RO, and ascorbic acid) and thereby induced to differentiate into an insulin-producing cell population. Subsequently, an FGF receptor 1 inhibitor (CAS192705-79-6, 1 μM) was added to a medium for induction of differentiation (Improved MEM/1% B27/Penicillin Streptomycin) containing differentiation factors (ALK5 inhibitor II, T3, LDN, γ-secretase inhibitor RO, and ascorbic acid), and the cells were cultured therein for 7 days.
# 3) An endocrine progenitor cell population obtained by the induction of differentiation from iPS cells were cultured for 7 days in a medium for induction of differentiation (Improved MEM/1% B27/Penicillin Streptomycin) containing differentiation factors (ALK5 inhibitor II, T3, LDN, γ-secretase inhibitor RO, and ascorbic acid) and thereby induced to differentiate into an insulin-producing cell population. […]
# The number of insulin-positive (and NKX6.1-positive) cells in the cell population obtained by each of the above methods 1), 2), and 3) was counted by flow cytometry. The proportion of insulin-positive (and NKX6.1-positive) cells in each method was calculated as a relative value when the number of insulin-positive (and NKX6.1-positive) cells in the control cell population obtained by the above method 4) was defined as 100%.
# rat myoblasts [4] = settings: cited from earlier work
# rat myoblasts [5] = settings: cited from earlier work; remark: listed apart in the source
# Ki67-positive cells [6] = experiment: Ki67-positive cells by flow cytometry, timing of treatment during insulin-producing cell production (Example 2); assay type: cell-based; settings: 1 μM, mean ± SD of three experiments, absent control 7.57 ± 1.05%
# Experimental: as §1, §2
# as §2, with “3) An” for “2) An”, “for 7” for “for 4”, “for 4” for “for 7”, “days. […]” for “days.”
# The number of Ki67-positive cells in the cell population obtained by each of the above methods 1), 2), and 3) was counted by flow cytometry to determine the proportion of Ki67-positive cells in each cell population.
# [7] = tested on: immunodeficient NOD/SCID mice having streptozotocin-induced insulin-deficient diabetes mellitus; experiment: Transplantation of the FGF receptor 1 inhibitor-treated insulin-producing cell population beneath the kidney capsule; human C-peptide in blood and blood glucose; assay type: in vivo; settings: cell population treated with 1 μM for 12 days
# Experimental: In the description below, the preparation of mice and the transplantation of cells were performed in accordance with known methods.
# The insulin-producing cell population obtained by culture in the medium for induction of differentiation containing CAS192705-79-6 in the preceding section (1) or an insulin-producing cell population obtained by culture in a medium for induction of differentiation free from CAS192705-79-6 as a comparative example was transplanted beneath the capsule of the kidney using immunodeficient NOD/SCID mice having streptozotocin-induced insulin-deficient diabetes mellitus. For follow-up after the transplantation, human C-peptide concentrations in blood and blood glucose levels were measured. […]
# grafts = experiment: Autopsy findings and immunohistological staining of grafts excised 5 weeks after transplantation; assay type: in vivo, mice; settings: cell population treated with 1 μM for 12 days, compared with untreated cell population
# Description: The insulin-producing cell population obtained by culture in the medium for induction of differentiation containing CAS192705-79-6 in the preceding section (1) or an insulin-producing cell population obtained by culture in a medium for induction of differentiation free from CAS192705-79-6 as a comparative example was transplanted beneath the capsule of the kidney using immunodeficient NOD/SCID mice having streptozotocin-induced insulin-deficient diabetes mellitus. For follow-up after the transplantation, human C-peptide concentrations in blood and blood glucose levels were measured. The grafts were excised 5 weeks after the transplantation.
# The excised grafts were fixed and dehydrated, and then, frozen sections were prepared and subjected to immunohistological staining in order to evaluate unintended cells. The cells of interest that could be expected to maturate into pancreatic islet cells in vivo were evaluated using insulin positivity (and NKX6.1 positivity) or glucagon positivity as an indicator, and unintended cells having the possibility of adversely affecting long-term graft survival of the cells of interest were evaluated using Ki67 positivity as an indicator.
# Ki67-positive cells [8] = experiment: Ki67-positive cells by flow cytometry in the insulin-producing cell population obtained by treating an endocrine progenitor cell population for 12 days (Example 1); assay type: cell-based, human; settings: 1 μM, mean ± standard deviation of five experiments, absent control 10.78 ± 4.09%
# Experimental: The induction of differentiation of the endocrine progenitor cell population into an insulin-producing cell population was carried out according to the above step 6) or the previous report (Nature Biotechnology 2014; 32: 1121-1133).
# as §1, with “The” for “1) An”, “12” for “11”, “population. The number of Ki67-positive cells in the obtained cell population was evaluated by flow cytometry.” for “population.”
# [9] = tested on: human placental blood vessels; settings: cited from earlier work
# [10] = Table 4, 0.3 μM, absent control 4.13%
# [11] = Table 4, 1 μM, absent control 4.13%
compound,measurement,setting,value
CCN(CC)CCCCNc1ncc2cc(-c3cc(OC)cc(OC)c3)c(NC(=O)NC(C)(C)C)nc2n1 [PD-173074],Proportion of Ki67-positive cells (%),"Ki67-positive cells [1]; Table 5, 0.1 μM, absent control 2.7%",0.7%;
same,Proportion of Ki67-positive cells (%),"Ki67-positive cells [1]; Table 5, 1 μM, absent control 2.7%",0.7%;
same,Proportion of Ki67-positive cells (%),"Ki67-positive cells [1]; Table 5, 5 μM, absent control 2.7%",0.5%;
COCCCOc1ccnc(C[S+]([O-])c2nc3ccccc3[nH]2)c1C (stereo not drawn) [E-3810],Proportion of Ki67-positive cells (%),Ki67-positive cells [1]; [10],2.74%;
same,Proportion of Ki67-positive cells (%),Ki67-positive cells [1]; [11],1.51%;
same,Proportion of Ki67-positive cells (%),"Ki67-positive cells [1]; Table 4, 10 μM, absent control 4.13%",0.67%;
"COc1cc(OC)cc(-c2cc3cnc(N)nc3nc2NC(=O)NC(C)(C)C)c1 [CAS192705-79-6, 1-[2-amino-6-(3,5-dimethoxyphenyl)-pyrido(2,3-d)pyrimidin-7-yl]-3-tert-butylurea]",Differentiation of endocrine progenitor cells,[2],can be promoted
same,Proportion of insulin-positive (and NKX6.1-positive) cells,[3]; for last 4 days,91 ± 16%
same,Proportion of insulin-positive (and NKX6.1-positive) cells,[3]; for last 7 days,88 ± 13%
same,Proportion of insulin-positive (and NKX6.1-positive) cells,[3]; from start (11 days),45 ± 15%
same,Proportion of Ki67-positive cells (%),"Ki67-positive cells [1]; Table 4, 0.1 μM, absent control 4.13%",2.15%;
same,Proportion of Ki67-positive cells (%),Ki67-positive cells [1]; [10],0.99%;
same,Proportion of Ki67-positive cells (%),Ki67-positive cells [1]; [11],0.7%;
same,Cell proliferation caused by PDGE stimulation,rat myoblasts [4],not inhibit cell proliferation caused by PDGE stimulation
same,Cell proliferation caused by bFGF stimulation,rat myoblasts [5],inhibit cell proliferation caused by bFGF stimulation
same,Proportion of Ki67-positive cells,Ki67-positive cells [6]; for last 4 days,0.57 ± 0.15%
same,Proportion of Ki67-positive cells,Ki67-positive cells [6]; for last 7 days,0.47 ± 0.15%
same,Proportion of Ki67-positive cells,Ki67-positive cells [6]; from start (11 days),0.57 ± 0.35%
same,Human C-peptide concentration in blood 4 months after transplantation,"[7]; transplanted beneath the kidney capsule, untreated cells 1440 ± 573",1486 ± 305 pM
same,Blood glucose level 4 months after transplantation,"[7]; 4 months later, untreated cells 85 ± 16",86 ± 22 mg/dL
same,Blood glucose level at time of transplantation,[7]; at time of transplantation (baseline),516 ± 33 mg/dL
same,Bloatedness of the grafts,grafts,drastic inhibition of bloatedness of the grafts
same,Content percentage of Ki67-positive cells (before transplantation),Ki67-positive cells [8],0.98 ± 0.29%
same,Elongation of microvessels,[9],inhibit the elongation of microvessels
